Experimental data from patent publication US8524809B2, “Low odor compositions and methods to attain low odor compositions” (Rohm and Haas Company, priority 2010, dated 2013).

How the values were obtained:
N51032 = experiment: Small molecule inhibitors: EA content of latex containing N51032; format: biochemical
Description: (§1) In another embodiment, deactivation of the carboxylesterase enzyme may be achieved by the addition of a small molecule inhibitor, as shown for CALBL and N51032 in Tables 13 and 14, below. […] The small molecule inhibitor and CALBL were added simultaneously at the time t=0. In the following tables, the potential small molecule inhibitors are as follows: […]

CALBL = target: T1, CALBL (Moesziomyces antarcticus, UniProt P41365); experiment: Small molecule inhibitors: EA content of latex containing CALBL; format: biochemical; conditions: for Inhibition of CALBL (in words): inhibitor 1.0%
T1 construct: purchased Novozymes, Bagsvaerd, Denmark Novozym CALB L
T1 sequence (P41365 26-342): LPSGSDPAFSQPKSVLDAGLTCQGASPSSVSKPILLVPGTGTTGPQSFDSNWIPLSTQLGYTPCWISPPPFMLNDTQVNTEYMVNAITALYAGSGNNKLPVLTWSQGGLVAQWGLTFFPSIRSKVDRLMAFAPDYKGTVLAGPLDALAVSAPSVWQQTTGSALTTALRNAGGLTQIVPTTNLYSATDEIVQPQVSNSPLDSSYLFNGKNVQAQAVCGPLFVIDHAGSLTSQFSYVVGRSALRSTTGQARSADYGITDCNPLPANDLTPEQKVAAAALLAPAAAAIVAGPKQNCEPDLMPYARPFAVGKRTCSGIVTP
Description: as §1

[1] = Nucleophilic reagents: aldehyde content in vinyl acetate-acrylic latex; conditions: Rovace 9900 pre-treated 1 week with 50 ppm N51032; reagent 50 ppm, 55° C. 2 hours, then 1 week RT
Description: The latex samples were first treated with a carboxylesterase enzyme (50 ppm of N51032) for 1 week to remove residual esters and also to convert residual vinyl acetate to acetaldehyde (the esterase produces vinyl alcohol, which rearranges to form acetaldehyde). Each sample was then stirred at 55° C. for 2 hours with the reagent shown below in Table 26 (added at a level of 50 ppm), and then left at room temperature for 1 week before evaluating levels of aldehyde in the headspace composition (GC-MS, 33° C.).

[2] = Esterase and nucleophilic reagent, larger scale vinyl acetate-acrylic latex; conditions: VAc-acrylic latex, 50 ppm N51032 + 50 ppm reagent
Description: The combined effect of carboxylesterase (50 ppm N51032) and nucleophilic reagent (50 ppm in each case) was evaluated in a larger scale vinyl acetate-acrylic latex sample, Table 27, below. The combined addition was made into a 1 gallon reaction vessel, with stirring, after the polymer synthesis and chase, and while the contents were at 50° C. The contents were then allowed to cool and headspace concentrations were analyzed after 1 day at room temperature, and after 5 days at room temperature.

[3] = AC-261 latex, N51032 50 ppm, inhibitor 1% added simultaneously (Control: none), 0 hr
[4] = AC-261 latex, N51032 50 ppm, inhibitor 1% added simultaneously (Control: none), 24 hr
[5] = AC-261 latex, N51032 50 ppm, inhibitor 1% added simultaneously (Control: none), 72 hr
[6] = AC-261 latex, N51032 50 ppm, inhibitor 1% added simultaneously (Control: none), 168 hr
[7] = N51032 5 ppm, inhibitor 0.001%, 0 hr
[8] = N51032 5 ppm, inhibitor 0.001%, 120 hr
[9] = N51032 5 ppm, inhibitor 0.001%, 168 hr
[10] = N51032 5 ppm, inhibitor 0.001%, 384 hr
[11] = N51032 5 ppm, inhibitor 0.001%, 480 hr
[12] = N51032 5 ppm, inhibitor 0.01%, 0 hr
[13] = N51032 5 ppm, inhibitor 0.01%, 120 hr
[14] = N51032 5 ppm, inhibitor 0.01%, 168 hr
[15] = N51032 5 ppm, inhibitor 0.01%, 384 hr
[16] = N51032 5 ppm, inhibitor 0.01%, 480 hr
[17] = N51032 5 ppm, inhibitor 0.1%, 0 hr
[18] = N51032 5 ppm, inhibitor 0.1%, 120 hr
[19] = N51032 5 ppm, inhibitor 0.1%, 168 hr
[20] = N51032 5 ppm, inhibitor 0.1%, 384 hr
[21] = N51032 5 ppm, inhibitor 0.1%, 480 hr
[22] = AC-261 latex, CALBL 60 ppm, inhibitor 1.0% added simultaneously (Control: none), 0 hr
[23] = AC-261 latex, CALBL 60 ppm, inhibitor 1.0% added simultaneously (Control: none), 24 hr
[24] = AC-261 latex, CALBL 60 ppm, inhibitor 1.0% added simultaneously (Control: none), 72 hr
[25] = AC-261 latex, CALBL 60 ppm, inhibitor 1.0% added simultaneously (Control: none), 168 hr
[26] = CALBL 6 ppm, inhibitor 0.001%, 0 hr
[27] = CALBL 6 ppm, inhibitor 0.001%, 120 hr
[28] = CALBL 6 ppm, inhibitor 0.001%, 168 hr
[29] = CALBL 6 ppm, inhibitor 0.001%, 384 hr
[30] = CALBL 6 ppm, inhibitor 0.001%, 480 hr
[31] = CALBL 6 ppm, inhibitor 0.01%, 0 hr
[32] = CALBL 6 ppm, inhibitor 0.01%, 120 hr
[33] = CALBL 6 ppm, inhibitor 0.01%, 168 hr
[34] = CALBL 6 ppm, inhibitor 0.01%, 384 hr
[35] = CALBL 6 ppm, inhibitor 0.01%, 480 hr
[36] = CALBL 6 ppm, inhibitor 0.1%, 0 hr
[37] = CALBL 6 ppm, inhibitor 0.1%, 120 hr
[38] = CALBL 6 ppm, inhibitor 0.1%, 168 hr
[39] = CALBL 6 ppm, inhibitor 0.1%, 384 hr
[40] = CALBL 6 ppm, inhibitor 0.1%, 480 hr

CC(C)CB(O)O [2MPB, (2-methylpropyl) boronic acid]
EA content (N51032; [3]): 117 ppm | EA content (N51032; [4]): 92 ppm | EA content (N51032; [5]): 99 ppm | EA content (N51032; [6]): 79 ppm | EA content (N51032; [7]): 42 ppm | EA content (N51032; [8]): 24 ppm | EA content (N51032; [9]): 22 ppm | EA content (N51032; [10]): 8 ppm | EA content (N51032; [11]): 6 ppm | EA content (N51032; [12]): 37 ppm | EA content (N51032; [13]): 25 ppm | EA content (N51032; [14]): 19 ppm | EA content (N51032; [15]): 6 ppm | EA content (N51032; [16]): 5 ppm | EA content (N51032; [17]): 43 ppm | EA content (N51032; [18]): 34 ppm | EA content (N51032; [19]): 27 ppm | EA content (N51032; [20]): 22 ppm | EA content (N51032; [21]): 20 ppm | EA content (CALBL; [22]): 105 ppm | EA content (CALBL; [23]): 95 ppm | EA content (CALBL; [24]): 102 ppm | EA content (CALBL; [25]): 104 ppm | EA content (CALBL; [26]): 44 | EA content (CALBL; [27]): 32 | EA content (CALBL; [28]): 23 | EA content (CALBL; [29]): 10 | EA content (CALBL; [30]): 8 | EA content (CALBL; [31]): 43 | EA content (CALBL; [32]): 28 | EA content (CALBL; [33]): 24 | EA content (CALBL; [34]): 13 | EA content (CALBL; [35]): 11 | EA content (CALBL; [36]): 43 | EA content (CALBL; [37]): 34 | EA content (CALBL; [38]): 25 | EA content (CALBL; [39]): 15 | EA content (CALBL; [40]): 13 | Inhibition of CALBL (in words) (CALBL; CALBL 60 ppm): effective in inhibiting the carboxylesterase enzyme

Nc1ccc(CO)cc1 [4ABA, 4-aminobenzyl alcohol]
Acetaldehyde Headspace Concentration [1]: 151 ppm | Acetone Headspace Concentration [1]: 245 ppm | Ethanol Headspace Concentration [1]: 20 ppm | butanal Headspace Concentration [1]: 1 ppm | l-butanol Headspace Concentration [1]: 48 ppm | t-butanol Headspace Concentration [1]: 257 ppm

NNc1ccc(C(=O)O)cc1 [4HB, 4-hydrazino benzoic acid]
Acetaldehyde Headspace Concentration [1]: 14 ppm | Acetone Headspace Concentration [1]: 247 ppm | Ethanol Headspace Concentration [1]: 20 ppm | butanal Headspace Concentration [1]: 0 ppm | l-butanol Headspace Concentration [1]: 48 ppm | t-butanol Headspace Concentration [1]: 258 ppm

O=C1CC(=O)NC(=O)N1 [B, barbituric acid]
Acetaldehyde Headspace Concentration [1]: 0 ppm | Acetone Headspace Concentration [1]: 287 ppm | Ethanol Headspace Concentration [1]: 26 ppm | butanal Headspace Concentration [1]: 0 ppm | l-butanol Headspace Concentration [1]: 53 ppm | t-butanol Headspace Concentration [1]: 300 ppm | Acetaldehyde Headspace Concentration ([2]; 1 Day): 237 ppm | Acetone Headspace Concentration ([2]; 1 Day): 392 ppm | Butyl acetate Headspace Concentration ([2]; 1 Day): 1 ppm | Ethanol Headspace Concentration ([2]; 1 Day): 10 ppm | Vinyl acetate Headspace Concentration ([2]; 1 Day): 0 ppm | butanal Headspace Concentration ([2]; 1 Day): 0.4 ppm | l-butanol Headspace Concentration ([2]; 1 Day): 18 ppm | t-butanol Headspace Concentration ([2]; 1 Day): 265 ppm | Acetaldehyde Headspace Concentration ([2]; 5 Days): 140 ppm | Acetone Headspace Concentration ([2]; 5 Days): 418 ppm | Butyl acetate Headspace Concentration ([2]; 5 Days): 1 ppm | Ethanol Headspace Concentration ([2]; 5 Days): 23 ppm | Vinyl acetate Headspace Concentration ([2]; 5 Days): 0 ppm | butanal Headspace Concentration ([2]; 5 Days): 0.6 ppm | l-butanol Headspace Concentration ([2]; 5 Days): 21 ppm | t-butanol Headspace Concentration ([2]; 5 Days): 285 ppm

OB(O)C1CCCCC1 [CBA, cyclohexylboronic acid]
EA content (N51032; [3]): 117 ppm | EA content (N51032; [4]): 96 ppm | EA content (N51032; [5]): 109 ppm | EA content (N51032; [6]): 79 ppm | EA content (CALBL; [22]): 102 ppm | EA content (CALBL; [23]): 70 ppm | EA content (CALBL; [24]): 55 ppm | EA content (CALBL; [25]): 24 ppm | Inhibition of CALBL (in words) (CALBL; CALBL 60 ppm): some ability to inhibit the CALBL enzyme

CC(C)(C)CB(O)O [NPB, Neopentylboronic acid]
EA content (N51032; [3]): 116 ppm | EA content (N51032; [4]): 49 ppm | EA content (N51032; [5]): 30 ppm | EA content (N51032; [6]): 6 ppm | EA content (CALBL; [22]): 107 ppm | EA content (CALBL; [23]): 21 ppm | EA content (CALBL; [24]): 0 ppm | EA content (CALBL; [25]): 0 ppm | Inhibition of CALBL (in words) (CALBL; CALBL 60 ppm): completely ineffective as an inhibitor of CALBL

OB(O)c1ccccc1 [PBA, phenylboronic acid]
EA content (N51032; [3]): 116 ppm | EA content (N51032; [4]): 116 ppm | EA content (N51032; [5]): 111 ppm | EA content (N51032; [6]): 117 ppm | EA content (N51032; [7]): 46 ppm | EA content (N51032; [8]): 36 ppm | EA content (N51032; [9]): 34 ppm | EA content (N51032; [10]): 22 ppm | EA content (N51032; [11]): 19 ppm | EA content (N51032; [12]): 45 ppm | EA content (N51032; [13]): 41 ppm | EA content (N51032; [14]): 39 ppm | EA content (N51032; [15]): 34 ppm | EA content (N51032; [16]): 34 ppm | EA content (N51032; [17]): 46 ppm | EA content (N51032; [18]): 34 ppm | EA content (N51032; [19]): 41 ppm | EA content (N51032; [20]): 38 ppm | EA content (N51032; [21]): 39 ppm | Inhibition of N51032 (in words) (N51032; inhibitor 1%, N51032 50 ppm): effective in inhibiting the carboxylesterase enzyme | EA content (CALBL; [22]): 108 ppm | EA content (CALBL; [23]): 103 ppm | EA content (CALBL; [24]): 116 ppm | EA content (CALBL; [25]): 108 ppm | EA content (CALBL; [26]): 48 | EA content (CALBL; [27]): 30 | EA content (CALBL; [28]): 25 | EA content (CALBL; [29]): 11 | EA content (CALBL; [30]): 9 | EA content (CALBL; [31]): 44 | EA content (CALBL; [32]): 32 | EA content (CALBL; [33]): 26 | EA content (CALBL; [34]): 15 | EA content (CALBL; [35]): 15 | EA content (CALBL; [36]): 39 | EA content (CALBL; [37]): 35 | EA content (CALBL; [38]): 35 | EA content (CALBL; [39]): 29 | EA content (CALBL; [40]): 29 | Inhibition of CALBL (in words) (CALBL; CALBL 60 ppm): effective in inhibiting the carboxylesterase enzyme

Nc1ccc(N)cc1 [PPD, p-phenylene diamine]
Acetaldehyde Headspace Concentration [1]: 0 ppm | Acetone Headspace Concentration [1]: 279 ppm | Ethanol Headspace Concentration [1]: 25 ppm | butanal Headspace Concentration [1]: 0 ppm | l-butanol Headspace Concentration [1]: 58 ppm | t-butanol Headspace Concentration [1]: 304 ppm

CCCCCCCCCCS(=O)(=O)[O-].[Na+] [S-1-DS, Sodium 1-decane-sulfonate]
EA content (N51032; [3]): 115 ppm | EA content (N51032; [4]): 73 ppm | EA content (N51032; [5]): 79 ppm | EA content (N51032; [6]): 77 ppm | EA content (CALBL; [22]): 114 ppm | EA content (CALBL; [23]): 73 ppm | EA content (CALBL; [24]): 36 ppm | EA content (CALBL; [25]): 17 ppm | Inhibition of CALBL (in words) (CALBL; CALBL 60 ppm): some ability to inhibit the CALBL enzyme

NCCNCCNCCN [TET, triethylene tetramine]
Acetaldehyde Headspace Concentration [1]: 42 ppm | Acetone Headspace Concentration [1]: 262 ppm | Ethanol Headspace Concentration [1]: 23 ppm | butanal Headspace Concentration [1]: 1 ppm | l-butanol Headspace Concentration [1]: 64 ppm | t-butanol Headspace Concentration [1]: 278 ppm
